Key:
PARG [1] = target: T1, PARG (Bos taurus, UniProt O02776); assay: PARG assay; type: biochemical; conditions: SAR discussion in text
[2] = tested on: PARP activity in SCC-25 cells; assay: NAD assay: NAD; type: cell-based; conditions: pretreated with 1mM compound, MNNG 5μg/mL for 30 minutes (Figure 2C)
PARP-1 = PARP-1 (Homo sapiens, UniProt P09874); conditions: previous study; cited from earlier work
[3] = tested on: PARG activity in SCC-25 cells; assay: PAR assay: PAR formation/turnover in SCC-25 cells after MNNG; type: cell-based
PARG [4] = target: T1, PARG; conditions: previous study; cited from earlier work

T1 sequence (O02776 385-977): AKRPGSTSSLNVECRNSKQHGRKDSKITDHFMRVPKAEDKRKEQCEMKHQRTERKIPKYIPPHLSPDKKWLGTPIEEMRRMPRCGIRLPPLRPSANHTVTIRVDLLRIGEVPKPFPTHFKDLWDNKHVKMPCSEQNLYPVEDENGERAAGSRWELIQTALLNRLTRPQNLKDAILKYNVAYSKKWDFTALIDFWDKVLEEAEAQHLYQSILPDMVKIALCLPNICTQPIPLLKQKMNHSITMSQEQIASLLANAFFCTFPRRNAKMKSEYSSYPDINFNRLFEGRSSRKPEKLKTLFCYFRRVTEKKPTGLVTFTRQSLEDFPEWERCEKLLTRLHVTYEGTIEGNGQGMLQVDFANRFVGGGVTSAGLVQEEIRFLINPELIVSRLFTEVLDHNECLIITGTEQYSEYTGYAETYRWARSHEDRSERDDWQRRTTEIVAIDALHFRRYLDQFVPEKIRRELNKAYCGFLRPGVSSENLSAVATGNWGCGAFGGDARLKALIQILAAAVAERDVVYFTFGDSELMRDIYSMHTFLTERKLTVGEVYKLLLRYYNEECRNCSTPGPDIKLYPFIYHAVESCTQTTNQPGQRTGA
Chain of PARP-1 (P09874 whole entry): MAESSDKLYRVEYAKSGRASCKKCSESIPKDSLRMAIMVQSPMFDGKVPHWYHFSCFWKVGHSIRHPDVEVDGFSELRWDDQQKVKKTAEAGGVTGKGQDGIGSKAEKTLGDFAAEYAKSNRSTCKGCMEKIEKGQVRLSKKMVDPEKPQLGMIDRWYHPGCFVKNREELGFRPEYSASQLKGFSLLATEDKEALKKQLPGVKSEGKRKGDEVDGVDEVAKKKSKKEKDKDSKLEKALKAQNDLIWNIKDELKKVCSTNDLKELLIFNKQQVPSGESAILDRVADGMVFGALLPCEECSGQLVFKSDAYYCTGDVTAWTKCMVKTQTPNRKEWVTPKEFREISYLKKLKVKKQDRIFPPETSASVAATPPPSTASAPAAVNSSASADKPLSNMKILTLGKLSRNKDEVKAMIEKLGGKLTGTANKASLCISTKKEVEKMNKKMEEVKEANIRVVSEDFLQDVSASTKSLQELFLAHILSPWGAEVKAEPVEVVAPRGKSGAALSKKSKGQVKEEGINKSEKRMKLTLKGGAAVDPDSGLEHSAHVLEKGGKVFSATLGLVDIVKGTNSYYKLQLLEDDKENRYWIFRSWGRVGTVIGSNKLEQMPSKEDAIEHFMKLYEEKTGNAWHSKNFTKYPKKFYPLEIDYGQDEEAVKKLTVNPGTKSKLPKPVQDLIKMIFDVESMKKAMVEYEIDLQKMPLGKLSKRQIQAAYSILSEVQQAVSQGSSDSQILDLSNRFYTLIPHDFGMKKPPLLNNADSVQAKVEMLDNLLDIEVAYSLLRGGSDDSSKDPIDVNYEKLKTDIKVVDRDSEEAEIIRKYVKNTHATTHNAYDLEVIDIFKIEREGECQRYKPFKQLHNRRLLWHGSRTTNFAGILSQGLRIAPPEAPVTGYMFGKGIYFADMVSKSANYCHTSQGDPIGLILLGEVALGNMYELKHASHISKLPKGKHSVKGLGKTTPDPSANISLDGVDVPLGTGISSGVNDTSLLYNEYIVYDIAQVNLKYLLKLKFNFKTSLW

Structure (SMILES) | PARG inhibition (in words) (PARG [1]) | inhibition of NAD(H) depletion (in words) [2] | further results
Nc1ncnc2c1ncn2[C@@H]1O[C@H](COP(=O)(O)OP(=O)(O)OC[C@H]2NC[C@H](O)[C@@H]2O)[C@@H](O)[C@H]1O [ADP-HPD, adenosine 5′-diphosphate (hydroxymethyl) pyrrolidinediol] | – | – | inhibition of PARP-1 (in words) (PARP-1): does not inhibit PARP-1
O=C(Nc1cccc(Cl)c1)c1cc(Cl)cc(Cl)c1O [Compound 8c, 3,5-dichloro-N-(3-chlorophenyl)-2-hydroxybenzamide] | PARG inhibition returned although at low potency | – | –
O=C(Nc1ccccc1Cl)c1cc(Cl)cc(Cl)c1O [Compound 8b, 3,5-dichloro-N-(2-chlorophenyl)-2-hydroxybenzamide] | slight loss of potency | – | –
O=C(Nc1ccc(Cl)cc1)c1cc(Cl)cc(Cl)c1O [Compound 8d, 3,5-dichloro-N-(4-chlorophenyl)-2-hydroxybenzamide] | slight loss of potency | partial inhibition of NAD(H) consumption | –
Oc1c(Cl)cc(Cl)cc1CNc1ccc(Oc2ccc3ccccc3c2)c(Cl)c1 [Compound 10, 2,4-dichloro-6-((3-chloro-4-(naphthalen-2-yloxy)phenylamino)methyl)phenol] | loss of PARG inhibition | – | –
NC(=O)c1cc(Cl)cc(Cl)c1O [Compound 7, 3,5-dichloro-2-hydroxybenzamide] | loss of detectable PARG inhibition | minimal effect | –
O=C(Nc1ccc(Oc2ccc3ccccc3c2)c(Cl)c1)c1cc(Cl)cc(Cl)c1O [Compound 6a, 3,5-dichloro-N-(3-chloro-4-(naphthalen-2-yloxy)phenyl)-2-hydroxybenzamide] | – | partial inhibition of NAD(H) consumption | increase of PAR accumulation at 10 min ([3]; SCC-25 cells pre-incubated with 1mM compound, MNNG 5μg/mL (Figure 3B)): approximately 3 fold; inhibition of PARG in intact cells (in words) ([3]; SCC-25 cells, 1mM compound, MNNG 5μg/mL): nearly complete inhibition of PARG
NC(=O)c1ccccc1 [Benzamide, benzamide, reference compound] | – | complete inhibition of NAD(H) depletion | inhibition of PARG (in words) (PARG [4]): does not inhibit PARG
Oc1c(Cl)cc(Cl)cc1/C=N/c1ccc(Oc2ccc3ccccc3c2)c(Cl)c1 [Compound 9, 2,4-dichloro-6-((3-chloro-4-(naphthalen-2-yloxy)phenylimino)methyl)phenol] | loss of PARG inhibition | – | –

The next lines start with results.

PARG inhibition (in words) (PARG [1]) | Structure (SMILES) | inhibition of NAD(H) depletion (in words) [2] | further results
not enough to detect PARG inhibition | O=C(Nc1ccccc1)c1cc(Cl)cc(Cl)c1O [Compound 8h, 3,5-dichloro-2-hydroxy-N-benzamide] | – | –
loss of detectable inhibition of PARG | O=C(Nc1ccc(Oc2ccc3ccccc3c2)c(Cl)c1)c1cc(Cl)cc(Cl)c1 [Compound 6b, 3,5-dichloro-N-(3-chloro-4-(naphthalen-2-yloxy)phenyl)benzamide] | minimal effect | –
complete loss of PARG inhibition | O=C(Nc1ccc(O)c(Cl)c1)c1cc(Cl)cc(Cl)c1O [Compound 8a, 3,5-dichloro-N-(3-chloro-4-hydroxyphenyl)-2-hydroxybenzamide] | – | –
PARG inhibition was retained | O=C(O)c1ccccc1C(=O)Nc1ccc(Oc2ccc3ccccc3c2)c(Cl)c1 [Compound 6g, 2-(3-chloro-4-(naphthalen-2-yloxy)phenylcarbamoyl)benzoic acid] | – | –
loss of detectable PARG inhibition | COc1c(Cl)cc(Cl)cc1C(=O)Nc1ccc(Oc2ccc3ccccc3c2)c(Cl)c1 [Compound 6f, 3,5-dichloro-N-(3-chloro-4-(naphthalen-2-yloxy)phenyl)-2-methoxybenzamide] | – | –

Reference: publication PMC3150619 (Journal of medicinal chemistry, 2011)
